EC50 data for 38 molecules are collected here from patent US20100160369A1, “S1P1 Agonists and Methods of Making And Using” (EXELIXIS, INC., priority 2008, published 2010).

What is called EC50 is the concentration needed to bring the measured effect to its halfway point.

This experiment deals with S1P1 (Homo sapiens, UniProt P21453). Description: CNG cAMP Assay (Assay 1). More on the design: host or cells: HEK293 cells expressing the CNG channel. In kind it is cell-based. Here is the method:
Frozen HEK293 cells expressing the CNG channel and S1P1 (BD Biosciences, San Jose, Calif.) were thawed and plated into the wells of a black, clear bottom, 384-well CellBind plate (Corning, Corning, N.Y.) at 14,000 cells per well. HEK293 cells expressing the CNG channel and CB1 (BD Biosciences) were cultured and plated under the same conditions. The cells were incubated for 16 h at 37° C. in complete DMEM medium (Invitrogen Carlsbad, Calif.) containing 10% FBS (HyClone Logan, Utah), 250 μg/mL geneticin (Invitrogen), and 1 μg/mL puromycin (Sigma-Aldrich, St. Louis, Mo.). A membrane potential dye (BD Biosciences) was added and the plates were incubated for 2-2.5 h at room temperature.
Test compounds were tested at maximum concentrations of 10 μM. Compounds were diluted in DMSO (10 concentration points, 3-fold each) and added to the assay plate at final DMSO concentrations of 1.8%. For each compound, there were duplicate assay plates and each assay plate had duplicate wells per concentration point. Test compounds were added to the cells in a DPBS solution containing 25 μM Ro 20-1724 (Sigma-Aldrich), 500 nM of the A2b receptor agonist NECA (Sigma-Aldrich) and 10 nM (EC95) of S1P (Avanti Alabaster, Ala.) and incubated for 90 min. The assay plate was read before compound addition (T0) and after the 90 min incubation (T90) using an EnVision plate reader (PerkinElmer, Waltham, Mass.) at an excitation wavelength of 350 nm and an emission wavelength of 590 nm. The T90/T0 ratio was determined for each concentration of the test compounds. The percent agonist activity was determined as [(test compound−DMSO alone control)/(NECA alone control−DMSO alone control)*100]. The percent activities were plotted against compound concentration to determine EC50 using XLFit (IDBS, Alameda, Calif.). The control used for calculating rEC50 in the S1P1 CNG agonist assay was DMSO.
Assay 1 is the CNG cAMP Assay as described in Biological Example 1. Assay 2a and 2b are the Tango™ β-arrestin Recruitment Assay in HEK293 and U2OS cells, respectively, as described in Biological Example 2. Assay 3a is the hS1P1R GTPγS Binding Assay as described in Biological Example 3. Assay 3b is the GTP-Eu Binding Assay as described in Biological Example 3. EC50's were measured unless otherwise noted. […] In the table, “nt” means the Compound was not tested and “no” means the compound was tested but had no measurable activity under the assay conditions employed.

[1] abbreviates: relative EC50 was measured (footnote 1), read-out: Assay 1 Relative EC50.

Where two headings read alike, the source gives them in different places. Bounds are passed on as bounds.

S1P1, sequence (P21453 whole entry): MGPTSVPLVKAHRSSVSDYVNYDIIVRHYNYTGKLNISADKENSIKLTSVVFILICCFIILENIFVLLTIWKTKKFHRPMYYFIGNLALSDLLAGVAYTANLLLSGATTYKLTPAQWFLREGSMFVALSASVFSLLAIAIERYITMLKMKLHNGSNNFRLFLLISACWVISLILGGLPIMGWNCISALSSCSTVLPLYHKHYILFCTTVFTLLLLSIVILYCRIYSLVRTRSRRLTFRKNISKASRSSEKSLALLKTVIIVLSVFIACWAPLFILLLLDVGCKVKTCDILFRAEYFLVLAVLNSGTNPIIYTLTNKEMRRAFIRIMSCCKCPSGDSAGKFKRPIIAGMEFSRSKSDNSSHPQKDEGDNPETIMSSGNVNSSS

For `O=C(O)CCc1ccc(-c2noc(-c3cn4cc(C(F)(F)F)cc(Cl)c4n3)n2)c(C(F)(F)F)c1` [Entry 8], the concentration for a half-maximal effect (EC50) (read-out: Assay 1 EC50) was not above 100 nM. As for `NC(Cc1ccc(-c2noc(-c3cn4cc(C(F)(F)F)cc(Cl)c4n3)n2)c(Cl)c1)C(=O)O` (centres unmarked) [Entry 11], the EC50 (read-out: Assay 1 EC50) is 100 to 500 nM. Regarding `O=C(O)CCc1ccc(-c2noc(-c3cn4cc(C(F)(F)F)cc(Cl)c4n3)n2)cc1` [Entry 22], the concentration giving a half-maximal response (EC50) (read-out: Assay 1 EC50) is not above 100 nM. Take `Cc1cc(-c2noc(-c3cn4cc(C(F)(F)F)cc(Cl)c4n3)n2)ccc1CCC(=O)O` [Entry 23]: where the note is “read-out: Assay 1 EC50”, the concentration giving a half-maximal response (EC50) is not above 100 nM. Consider `O=C(O)CCc1cc(Cl)c(-c2noc(-c3cn4ccccc4n3)n2)cc1F` [Entry 27], for which the EC50 under setting [1] fell in the range of 5000 to 10000 nM. As for `O=C(O)CCc1cc(Cl)c(-c2noc(-c3cn4cccc(Cl)c4n3)n2)cc1F` [Entry 32], the EC50 (read-out: Assay 1 EC50) was 100 to 500 nM. For `Cc1c(Cl)cn2cc(-c3nc(-c4cc(F)c(CCC(=O)O)cc4Cl)no3)nc2c1Cl` [Entry 35], the EC50 (read-out: Assay 1 EC50) is 500 to 1000 nM. Regarding `C=CCOc1c(C)cc(-c2noc(-c3cn4cc(C(F)(F)F)cc(Cl)c4n3)n2)cc1C` [Entry 37], the EC50 under setting [1] was 5000 to 10000 nM. Turning to `O=C(O)CCc1cc(Cl)c(-c2noc(-c3cn4cc(F)cc(F)c4n3)n2)cc1F` [Entry 40], the EC50 under setting [1] fell in the range of 1000 to 5000 nM. As to `O=C(O)C1CC1c1ccc(-c2noc(-c3cn4cc(C(F)(F)F)cc(Cl)c4n3)n2)c(F)c1` (centres unmarked) [Entry 41], where the note is “read-out: Assay 1 EC50”, the concentration for a half-maximal effect (EC50) is 100 to 500 nM. On the same count and under the same terms, under `N#Cc1cc(Cl)c2nc(-c3nc(-c4cc(F)c(CCC(=O)O)cc4Cl)no3)cn2c1` [Entry 48] stands not above 100 nM. On to `COc1cc2nc(-c3nc(-c4cc(F)c(CCC(=O)O)cc4Cl)no3)cn2cc1Cl` [Entry 55], for which, under setting [1], the EC50 is 5000 to 10000 nM. Turning to `O=C(O)C(O)COc1ccc(-c2noc(-c3cn4cc(C(F)(F)F)cc(Cl)c4n3)n2)c(Cl)c1` (centres unmarked) [Entry 57], the EC50 (read-out: Assay 1 EC50) was not above 100 nM.

Consider `CS(=O)(=O)Nc1cc(Cl)c2nc(-c3nc(-c4cc(F)c(CCC(=O)O)cc4Cl)no3)cn2c1` [Entry 59], for which, under setting [1], the concentration giving a half-maximal response (EC50) lay within 1000 to 5000 nM. Turning to `O=C(O)CCc1cc(F)c(-c2noc(-c3cn4cc(C(F)(F)F)cc(Cl)c4n3)n2)cc1F` [Entry 60], the concentration giving a half-maximal response (EC50) (read-out: Assay 1 EC50) is not above 100 nM. On to `Cc1c(Br)cc(Br)c2nc(-c3nc(-c4cc(F)c(CCC(=O)O)cc4Cl)no3)cn12` [Entry 62], for which, for the setting “read-out: Assay 1 EC50”, the concentration for a half-maximal effect (EC50) was not above 100 nM. For `Fc1cccc(F)c1-c1nnc(-c2cn3cc(C(F)(F)F)cc(Cl)c3n2)o1` [Entry 66], the concentration for a half-maximal effect (EC50) (read-out: Assay 1 EC50) lay in the range of 500 to 1000 nM. Still for that read-out and setting: under `O=C(O)C1CC1c1ccc(-c2noc(-c3cn4cc(C(F)(F)F)cc(Cl)c4n3)n2)c(C(F)(F)F)c1` (centres unmarked) [Entry 70] stands 100 to 500 nM. Regarding `NC(=O)C1CC1c1ccc(-c2noc(-c3cn4cc(C(F)(F)F)cc(Cl)c4n3)n2)c(Cl)c1` (centres unmarked) [Entry 72], the EC50 (read-out: Assay 1 EC50) was not above 100 nM. Turning to `FC(F)(F)c1cc(Cl)c2nc(-c3nnc(-c4ccccc4Cl)o3)cn2c1` [Entry 73], the EC50 (read-out: Assay 1 EC50) was not above 100 nM. With `O=C(O)CCc1ccc(Nc2nnc(-c3cn4cc(C(F)(F)F)cc(Cl)c4n3)o2)c(Cl)c1` [Entry 74], the concentration for a half-maximal effect (EC50) under setting [1] lay in the range of 5000 to 10000 nM. Same read-out and setting: under `O=C(O)C1CC1c1ccc(-c2noc(-c3cn4cc(C(F)(F)F)cc(Cl)c4n3)n2)cc1` (centres unmarked) [Entry 75] stands 500 to 1000 nM.

With `O=C(O)C1CC1c1ccc(-c2noc(-c3cn4cc(C(F)(F)F)cc(Cl)c4n3)n2)cc1F` (centres unmarked) [Example 78, 2-(4-{5-[8-chloro-6-(trifluoromethyl)imidazo[1,2-a]pyridin-2-yl]-1,2,4-oxadiazol-3-yl}-2-fluorophenyl)cyclopropanecarboxylic acid], the EC50 (read-out: Assay 1 EC50) was in the range of 100 to 500 nM. As for `CC(Oc1cc(Cl)c(-c2noc(-c3cn4cc(C(F)(F)F)cc(Cl)c4n3)n2)cc1F)C(=O)O` (centres unmarked) [Example 83, 2-[(5-chloro-4-{5-[8-chloro-6-(trifluoromethyl)imidazo[1,2-a]pyridin-2-yl]-1,2,4-oxadiazol-3-yl}-2-fluorophenyl)oxy]propanoic acid], the half-maximal effective concentration (EC50) (read-out: Assay 1 EC50) is 100 to 500 nM. On to `OC[C@H]1C[C@H](Oc2ccc(-c3noc(-c4cn5cc(C(F)(F)F)cc(Cl)c5n4)n3)c(Cl)c2)CN1` [Example 84, {(2R,4S)-4-[(3-chloro-4-{5-[8-chloro-6-(trifluoromethyl)imidazo[1,2-a]pyridin-2-yl]-1,2,4-oxadiazol-3-yl}phenyl)oxy]pyrrolidin-2-yl}methanol], for which, where the note is “read-out: Assay 1 EC50”, the concentration giving a half-maximal response (EC50) fell in the range of 100 to 500 nM. On to `Cc1cc(-c2noc(-c3cn4cc(C(F)(F)F)cc(Cl)c4n3)n2)ccc1C1CC1C(=O)O` (centres unmarked) [Example 86, 2-(4-{5-[8-chloro-6-(trifluoromethyl)imidazo[1,2-a]pyridin-2-yl]-1,2,4-oxadiazol-3-yl}-2-methylphenyl)cyclopropanecarboxylic acid], for which, under “read-out: Assay 1 EC50”, the EC50 is 100 to 500 nM. Take `OC[C@@H]1C[C@H](Oc2ccc(-c3noc(-c4cn5cc(C(F)(F)F)cc(Cl)c5n4)n3)c(Cl)c2)CN1` [Example 87, {(2S,4S)-4-[(3-chloro-4-{5-[8-chloro-6-(trifluoromethyl)imidazo[1,2-a]pyridin-2-yl]-1,2,4-oxadiazol-3-yl}phenyl)oxy]pyrrolidin-2-yl}methanol]: the concentration for a half-maximal effect (EC50) (read-out: Assay 1 EC50) is not above 100 nM. With `O=C(O)C1CC1c1cc(F)c(-c2noc(-c3cn4cc(C(F)(F)F)cc(Cl)c4n3)n2)cc1F` (centres unmarked) [Example 88, 2-(4-{5-[8-chloro-6-(trifluoromethyl)imidazo[1,2-a]pyridin-2-yl]-1,2,4-oxadiazol-3-yl}-2,5-difluorophenyl)cyclopropanecarboxylic acid], where the note is “read-out: Assay 1 EC50”, the EC50 is not above 100 nM. Take `Nc1ccc(-c2noc(-c3cn4cc(C(F)(F)F)cc(Cl)c4n3)n2)c(Cl)c1` [Example 90, 3-chloro-4-{5-[8-chloro-6-(trifluoromethyl)imidazo[1,2-a]pyridin-2-yl]-1,2,4-oxadiazol-3-yl}aniline]: the EC50 (read-out: Assay 1 EC50) is not above 100 nM. For `Cc1cc(-c2noc(-c3cn4cc(C(F)(F)F)cc(Cl)c4n3)n2)cc(C)c1O[C@H](C)CO` [Example 91, (2R)-2-[(4-{5-[8-chloro-6-(trifluoromethyl)imidazo[1,2-a]pyridin-2-yl]-1,2,4-oxadiazol-3-yl}-2,6-dimethylphenyl)oxy]propan-1-ol], where the note is “read-out: Assay 1 EC50”, the EC50 is not above 100 nM. With `O=C(O)CCNc1ccc(-c2noc(-c3cn4cc(C(F)(F)F)cc(Cl)c4n3)n2)c(Cl)c1` [Example 95, N-(3-chloro-4-{5-[8-chloro-6-(trifluoromethyl)imidazo[1,2-a]pyridin-2-yl]-1,2,4-oxadiazol-3-yl}phenyl)-beta-alanine], for the setting “read-out: Assay 1 EC50”, the EC50 is 100 to 500 nM. As to `O=C(O)CNc1ccc(-c2noc(-c3cn4cc(C(F)(F)F)cc(Cl)c4n3)n2)c(Cl)c1` [Example 103, N-(3-chloro-4-{5-[8-chloro-6-(trifluormethyl)imidazo[1,2-a]pyridin-2-yl]-1,2,4-oxadiazol-3-yl}phenyl)glycine], under “read-out: Assay 1 EC50”, the EC50 was 100 to 500 nM. Still for that read-out and setting: under `Cc1cc(NS(C)(=O)=O)c(F)cc1-c1noc(-c2cn3cc(C(F)(F)F)cc(Cl)c3n2)n1` [Example 106, N-(4-{5-[8-chloro-6-(trifluoromethyl)imidazo[1,2-a]pyridin-2-yl]-1,2,4-oxadiazol-3-yl}-2-fluoro-5-methylphenyl)methane sulfonamide] stands not above 100 nM; under `Cc1cc(-c2noc(-c3cn4cc(C(F)(F)F)cc(Cl)c4n3)n2)cc(C)c1O[C@@H](C)CO` [Example 107, (2S)-2-[(4-{5-[8-chloro-6-(trifluoromethyl)imidazo[1,2-a]pyridin-2-yl]-1,2,4-oxadiazol-3-yl}-2,6-dimethylphenyl)oxy]propan-1-ol], not above 100 nM. As for `CCN(CC)CCS(=O)(=O)Nc1ccc(-c2noc(-c3cn4cc(C(F)(F)F)cc(Cl)c4n3)n2)c(Cl)c1` [Example 108, N-(3-chloro-4-{5-[8-chloro-6-(trifluoromethyl)imidazo[1,2-a]pyridin-2-yl]-1,2,4-oxadiazol-3-yl}phenyl)-2-(diethylamino)ethanesulfonamide], the concentration giving a half-maximal response (EC50) under setting [1] is 1000 to 5000 nM. With `CS(=O)(=O)Nc1ccc(-c2noc(-c3cn4cc(C(F)(F)F)cc(Cl)c4n3)n2)cc1F` [Example 109, N-(4-{5-[8-chloro-6-(trifluoromethyl)imidazo[1,2-a]pyridin-2-yl]-1,2,4-oxadiazol-3-yl}-2-fluorophenyl)methanesulfonamide], the EC50 (read-out: Assay 1 EC50) was in the range of 100 to 500 nM. `CS(=O)(=O)Nc1cc(Cl)c(-c2noc(-c3cn4cc(C(F)(F)F)cc(Cl)c4n3)n2)cc1F` [Example 111, N-(5-chloro-4-{5-[8-chloro-6-(trifluoromethyl)imidazo[1,2-a]pyridin-2-yl]-1,2,4-oxadiazol-3-yl}-2-fluorophenyl)methanesulfonamide]: the EC50 (read-out: Assay 1 EC50) is not above 100 nM. Turning to `O=C(O)CN1CCC(Oc2ccc(-c3noc(-c4cn5cc(C(F)(F)F)cc(Cl)c5n4)n3)c(Cl)c2)C1` (centres unmarked) [Example 112], the EC50 (read-out: Assay 1 EC50) is not above 100 nM.
